Test results from article PMC12527034, “R103 and R115 Affinity Mutants of ATeam ATP Biosensors” (Sensors (Basel, Switzerland), 2025).

Columns and labels:
[1] = molecular target: T1, ATeam3.10 (WT) (Bacillus sp. PS3, UniProt A0A0M5MQR7); assay: Steady-state FRET ratio ATP dose response of 0.125 uM purified ATeam3.10 sensor at room temperature in 50 mM MOPS-KOH pH 7.3, 50 mM KCl, 0.5 mM free Mg2+, 0.05% Triton-X100 (4 to 9 replicates).; format: binding; settings: SD, n = 4; read-out: ATP Affinity Kapp
T1 construct: gene uncC; epsilon subunit flanked by mseCFP and mVenus; polyhistidine-tagged, expressed in E. coli BL21(DE3)
Method: (§1) Protein Characterization. […] Samples were measured with n = 4 to 9 replicates.
(§2) We measured the ATP dose–response curves for all combinations of single and double mutants consisting of R-to-A charge neutralization or R-to-E charge reversal (Table 1, Figure 2). […] The difference between our observations likely reflects the sensitivity of the ε subunit to the label used. Kato-Yamada used a relatively small Cy3 label with a cysteine mutant (Q107C) of the ε subunit, whereas the ε subunit is fused to two large fluorescent proteins in ATeam3.10. Despite this difference, the increase in affinity could still be of particular use for developing an ATeam-based sensor to detect the low levels of extracellular ATP [2, 3, 11, 13, 25].
(§3) Figure 2 ATeam3.10 R103 and R115 single and double mutants tune ATP affinity. ATP dose responses were measured using purified protein in solution. […] Apparent dissociation constants are summarized in (E).

[2] = molecular target: T2, ATeam3.10 R103A (Bacillus sp. PS3, UniProt A0A0M5MQR7, R103A); assay: as above; format: binding; settings: SD, n = 4; read-out: ATP Affinity Kapp
T2 construct: gene uncC; epsilon subunit flanked by mseCFP and mVenus; polyhistidine-tagged
Method: as §1, §2, §3

[3] = molecular target: T3, ATeam3.10 R103A/R115A (Bacillus sp. PS3, UniProt A0A0M5MQR7, R103A/R115A); assay: as above; format: binding; settings: SD, n = 4; read-out: ATP Affinity Kapp
T3 construct: gene uncC; epsilon subunit flanked by mseCFP and mVenus; polyhistidine-tagged
Method: as §1, §2, §3

[4] = molecular target: T4, ATeam3.10 R103A/R115E (Bacillus sp. PS3, UniProt A0A0M5MQR7, R103A/R115E); assay: as above; format: binding; settings: SD, n = 4; read-out: ATP Affinity Kapp
T4 construct: gene uncC; epsilon subunit flanked by mseCFP and mVenus; polyhistidine-tagged
Method: as §1, §2, §3

[5] = molecular target: T5, ATeam3.10 R103E (Bacillus sp. PS3, UniProt A0A0M5MQR7, R103E); assay: as above; format: binding; settings: SD, n = 4; read-out: ATP Affinity Kapp
T5 construct: gene uncC; epsilon subunit flanked by mseCFP and mVenus; polyhistidine-tagged
Method: as §1, §2, §3

[6] = molecular target: T6, ATeam3.10 R103E/R115A (Bacillus sp. PS3, UniProt A0A0M5MQR7, R103E/R115A); assay: as above; format: binding; settings: SD, n = 4; read-out: ATP Affinity Kapp
T6 construct: gene uncC; epsilon subunit flanked by mseCFP and mVenus; polyhistidine-tagged
Method: as §1, §2, §3

[7] = molecular target: T7, ATeam3.10 R115A (Bacillus sp. PS3, UniProt A0A0M5MQR7, R115A); assay: as above; format: binding; settings: SD, n = 4; read-out: ATP Affinity Kapp
T7 construct: gene uncC; epsilon subunit flanked by mseCFP and mVenus; polyhistidine-tagged
Method: as §1, §2, §3

[8] = molecular target: T8, ATeam3.10 R115E (Bacillus sp. PS3, UniProt A0A0M5MQR7, R115E); assay: as above; format: binding; settings: SD, n = 4; read-out: ATP Affinity Kapp
T8 construct: gene uncC; epsilon subunit flanked by mseCFP and mVenus; polyhistidine-tagged
Method: as §1, §2, §3

[9] = molecular target: T9, ATeam1.03 (WT) (Bacillus subtilis, UniProt P37812); assay: Steady-state FRET ratio ATP dose response of 0.125 uM purified ATeam1.03 or ATeam1.03YEMK sensor at room temperature in 50 mM MOPS-KOH pH 7.3, 50 mM KCl, 0.5 mM free Mg2+, 0.05% Triton-X100 (4 to 9 replicates).; format: binding; settings: SD, n = 4; read-out: ATP Affinity Kapp (ATeam1.03 and ATeam1.03YEMK)
T9 construct: gene atpC; epsilon subunit flanked by mseCFP and mVenus; polyhistidine-tagged, expressed in E. coli BL21(DE3)
Method: as §1
(§4) Figure 4 All ATeam1.03 R103 and R115 single and double mutants cause loss of ATP affinity. ATP dose responses were measured using purified protein in solution. […] (A) Example fluorescence emission spectra for (A) wildtype ATeam1.03 and (B) the non-binding R103A/R115A double mutant.
(§5) Figure 5 ATeam1.03YEMK R103 and R115 single and double mutants tune ATP affinity. ATP dose responses were measured using purified protein in solution. […] (A) Example fluorescence emission spectra for (A) wildtype ATeam1.03YEMK, (B) the R103A/R115A double mutant, and (C) the R103A/R115E double mutant. ATP dose response curves for (D) single and (E) double mutants. Apparent dissociation constants are summarized in (F).

[10] = molecular target: T10, ATeam1.03YEMK (WT) (Bacillus subtilis, UniProt P37812, G131E/INS132K/K132M/M60Y); assay: as above; format: binding; settings: SD, n = 4; read-out: ATP Affinity Kapp (ATeam1.03 and ATeam1.03YEMK)
T10 construct: gene atpC; epsilon subunit with four interface residues exchanged to match Bacillus sp; PS3, flanked by mseCFP and mVenus; polyhistidine-tagged
Method: as §1, §4, §5

[11] = molecular target: T11, ATeam1.03YEMK R103A/R115E; assay: as above; format: binding; settings: SD, n = 4; read-out: ATP Affinity Kapp (ATeam1.03 and ATeam1.03YEMK)
T11 construct: YEMK epsilon subunit flanked by mseCFP and mVenus; polyhistidine-tagged
Method: as §1, §4, §5

[12] = molecular target: T12, ATeam1.03YEMK R103E/R115A; assay: as above; format: binding; settings: SD, n = 4; read-out: ATP Affinity Kapp (ATeam1.03 and ATeam1.03YEMK)
T12 construct: YEMK epsilon subunit flanked by mseCFP and mVenus; polyhistidine-tagged
Method: as §1, §4, §5

[13] = molecular target: T13, ATeam1.03YEMK R103E/R115E; assay: as above; format: binding; settings: SD, n = 4; read-out: ATP Affinity Kapp (ATeam1.03 and ATeam1.03YEMK)
T13 construct: YEMK epsilon subunit flanked by mseCFP and mVenus; polyhistidine-tagged
Method: as §1, §4, §5

[14] = molecular target: T14, ATeam1.03YEMK R115A (Bacillus subtilis, UniProt P37812, G131E/INS132K/K132M/M60Y/R115A); assay: as above; format: binding; settings: SD, n = 4; read-out: ATP Affinity Kapp (ATeam1.03 and ATeam1.03YEMK)
T14 construct: gene atpC; YEMK epsilon subunit flanked by mseCFP and mVenus; polyhistidine-tagged
Method: as §1, §4, §5

[15] = molecular target: T15, ATeam1.03YEMK R115E (Bacillus subtilis, UniProt P37812, G131E/INS132K/K132M/M60Y/R115E); assay: as above; format: binding; settings: SD, n = 4; read-out: ATP Affinity Kapp (ATeam1.03 and ATeam1.03YEMK)
T15 construct: gene atpC; YEMK epsilon subunit flanked by mseCFP and mVenus; polyhistidine-tagged
Method: as §1, §4, §5

[16] = molecular target: T16, ATeam3.10 R103E/R115E (Bacillus sp. PS3, UniProt A0A0M5MQR7, R103E/R115E); assay: Steady-state FRET ratio ATP dose response of 0.125 uM purified ATeam3.10 sensor at room temperature in 50 mM MOPS-KOH pH 7.3, 50 mM KCl, 0.5 mM free Mg2+, 0.05% Triton-X100 (4 to 9 replicates).; format: binding; parameters: gene uncC; epsilon subunit flanked by mseCFP and mVenus; polyhistidine-tagged; settings: SD, n = 4; read-out: ATP Affinity Kapp
Method: as §1, §2, §3

[17] = molecular target: T1, ATeam3.10 (WT); assay: Steady-state FRET ratio ADP dose response of 0.125 uM purified ATeam3.10 sensor at room temperature in 50 mM MOPS-KOH pH 7.3, 50 mM KCl, 0.5 mM MgCl2, 0.05% Triton-X100 (4 to 9 replicates).; format: binding; settings: n = 4; read-out: ADP Affinity Kapp
Method: as §1
(§6) Apparent dissociation constants are summarized in (E).

[18] = molecular target: T2, ATeam3.10 R103A; assay: as above; format: binding; settings: n = 4
Method: as §1, §6

[19] = molecular target: T3, ATeam3.10 R103A/R115A; assay: as above; format: binding; settings: n = 4
Method: as §1, §6

[20] = molecular target: T4, ATeam3.10 R103A/R115E; assay: as above; format: binding; settings: n = 4
Method: as §1, §6

[21] = molecular target: T5, ATeam3.10 R103E; assay: as above; format: binding; settings: n = 4
Method: as §1, §6

[22] = molecular target: T6, ATeam3.10 R103E/R115A; assay: as above; format: binding; settings: n = 4
Method: as §1, §6

[23] = molecular target: T7, ATeam3.10 R115A; assay: as above; format: binding; settings: n = 4
Method: as §1, §6

[24] = molecular target: T8, ATeam3.10 R115E; assay: as above; format: binding; settings: n = 4
Method: as §1, §6

[25] = molecular target: T16, ATeam3.10 R103E/R115E; assay: biochemical; parameters: gene uncC; settings: n = 4
Method: Assays were carried out at room temperature with 0.125 µM protein in assay buffer (50 mM MOPS-KOH, pH 7.3, 50 mM KCl, 0.5 mM MgCl2, 0.05% Triton-X100). ATP stocks were neutralized to pH 7, and a total MgCl2 concentration was added to maintain 0.5 mM free Mg^2+ [21]. Samples were prepared in clear-bottom, black 96-well plates (Greiner Bio-One, Monroe, NC, USA). Sensor protein and ATP at a concentration dictated by each point on the dose–response curve were added to a single well with assay buffer and allowed to equilibrate. Samples were measured with n = 4 to 9 replicates. Steady-state fluorescence was measured on a BioTek Synergy H4 using 420/50 nm excitation and 485/20 nm or 528/20 nm emission bandpass filters (BioTek, Winooski, VT, USA). Donor fluorescence lifetimes were measured using an Edinburgh Instruments FS5+ time-resolved fluorometer with an NKT-Fianium WhiteLaseMicro supercontinuum pulsed laser (Edinburgh Instruments, Livingston, UK). Donor fluorescence lifetime distribution analysis was carried out using the MemExp software [22, 23, 24].
ADP dose responses were measured using purified protein in solution. FRET ratios were calculated as sensitized acceptor emission-to-donor emission ratios. […] ADP dose response curves for (C) single and (D) double mutants.

[26] = tested on: HEK293 cells; assay: Live-cell imaging of metabolic inhibition (sensitized FRET emission ratio); format: cell-based
Method: Microscopy. HEK293 cells were cultured in low-glucose Dulbecco’s modified Eagle’s medium supplemented with 10% cosmic calf serum (Gibco, Thermo Fisher Scientific, Waltham, MA, USA). For imaging studies, cells were plated on 18 mm #1.5 coverslips and transfected with Effectene (Qiagen, Germantown, MD, USA) or by the calcium phosphate method. Prior to imaging, cells were equilibrated for at least 20 min at room temperature in imaging solution (15 mM HEPES, pH 7.3, 1.25 mM NaH2PO4, 130 mM NaCl, 3 mM KCl, 2 mM CaCl2, 1 mM MgCl2, 3 mM NaHCO3) supplemented with a glucose concentration dependent on the specific experiment. Live-cell microscopy was carried out at room temperature on an Olympus IX83 inverted fluorescence microscope with a 20X/0.75 NA air objective illuminated by a Lumencor SpectraX light engine and imaged with an Andor Zyla 4.2 sCMOS camera. An ECFP/EYFP/mCherry multiband beamsplitter (Chroma 69008bs) was used with bandpass excitation and emission filters for each channel: cyan 438/29 nm and 470/24 nm; yellow 510/10 nm and 540/30 nm; sensitized FRET 438/29 nm and 540/30 nm; red 575/25 nm and 631/28 nm. Andor iQ3 software was used for image acquisition, and ImageJ/FIJI was used for image analysis. […] Cell masks were created using a threshold of two times the background and applied to background-subtracted images. […]

T7 sequence (A0A0M5MQR7 entry or part of it R115A): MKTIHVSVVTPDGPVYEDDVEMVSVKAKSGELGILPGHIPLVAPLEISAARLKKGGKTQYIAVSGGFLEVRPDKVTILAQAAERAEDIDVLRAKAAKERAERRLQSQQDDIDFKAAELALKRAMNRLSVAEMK
T8 sequence (A0A0M5MQR7 entry or part of it R115E): as the sequence (A0A0M5MQR7 entry or part of it R115A) above, with A115E counted along it
T2 sequence (A0A0M5MQR7 entry or part of it R103A): as the sequence (A0A0M5MQR7 entry or part of it R115A) above, with R103A, A115R counted along it
T5 sequence (A0A0M5MQR7 entry or part of it R103E): as the sequence (A0A0M5MQR7 entry or part of it R115A) above, with R103E, A115R counted along it
T1 sequence (A0A0M5MQR7 1-133): as the sequence (A0A0M5MQR7 entry or part of it R115A) above, with A115R counted along it
T16 sequence (A0A0M5MQR7 entry or part of it R103E/R115E): as the sequence (A0A0M5MQR7 entry or part of it R115A) above, with R103E, A115E counted along it
T4 sequence (A0A0M5MQR7 entry or part of it R103A/R115E): as the sequence (A0A0M5MQR7 entry or part of it R115A) above, with R103A, A115E counted along it
T6 sequence (A0A0M5MQR7 entry or part of it R103E/R115A): as the sequence (A0A0M5MQR7 entry or part of it R115A) above, with R103E counted along it
T3 sequence (A0A0M5MQR7 entry or part of it R103A/R115A): as the sequence (A0A0M5MQR7 entry or part of it R115A) above, with R103A counted along it
T10 sequence (P37812 whole entry, stated change not applied): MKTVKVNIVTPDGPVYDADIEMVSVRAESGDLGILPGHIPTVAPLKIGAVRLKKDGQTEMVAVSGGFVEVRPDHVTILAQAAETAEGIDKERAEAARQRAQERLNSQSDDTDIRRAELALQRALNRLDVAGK
T15 sequence (P37812 whole entry, stated change not applied): as above
T14 sequence (P37812 whole entry, stated change not applied): as above
T9 sequence (P37812 whole entry): as the sequence (P37812 whole entry, stated change not applied) above

Structure (SMILES): Nc1ncnc2c1ncn2[C@@H]1O[C@H](COP(=O)(O)OP(=O)(O)OP(=O)(O)O)[C@@H](O)[C@H]1O [ATP, Adenosine triphosphate]
- Kd [1]: 0.8 µM
- Kd [2]: 0.8 µM
- Kd [3]: 0.2 µM
- Kd [4]: 0.2 µM
- Kd [5]: 0.6 µM
- Kd [6]: 0.7 µM
- Kd [7]: 0.6 µM
- Kd [8]: 0.3 µM
- Kd [9]: 1000 µM
- Kd [10]: 200 µM
- Kd [11]: 1900 µM
- Kd [12]: 1900 µM
- Kd [13]: 2200 µM
- Kd [14]: 1800 µM
- Kd [15]: 700 µM
- Kd [16]: 0.8 µM

Structure (SMILES): Nc1ncnc2c1ncn2[C@@H]1O[C@H](COP(=O)(O)OP(=O)(O)O)[C@@H](O)[C@H]1O [ADP, Adenosine diphosphate]
- Kd [17]: 130 ± 10 µM
- Kd [18]: 82 ± 6 µM
- Kd [19]: 32 ± 5 µM
- Kd [20]: 17 ± 1 µM
- Kd [21]: 68 ± 3 µM
- Kd [22]: 40 ± 2 µM
- Kd [23]: 74 ± 7 µM
- Kd [24]: 29 ± 2 µM
- Kd [25]: 51 ± 6 µM

Structure (SMILES): O=CC[C@@H](O)[C@H](O)[C@H](O)CO [DG, 2-deoxyglucose]
- effect on cytosolic ATP ([26]; HEK293, 10 mM glucose): did not cause a drastic loss of ATP
- effect on cytosolic ATP ([26]; HEK293, absence of glucose): did cause ATP depletion
